Assay [1] deals with rice blast fungus (Magnaporthe grisea, race: 007). Format: in vivo.
The subject of assay [2] is Brown spot fungus (Cochliobolus miyabeanus). In words: Rice Brown spot control test. In kind it is in vivo. The settings on record: same treatment as Example 3 (10 ppm in terms of cerebroside B), counted two days after spray inoculation.
A further assay concerns rice blast (leaf blast). In kind it is in vivo, Magnaporthe grisea. To be noted: rice (Koshihikari) field, spray 120 L/10 are on 44th and 51st days after transplantation; E and F 20 ppm in terms of cerebroside B, F and G with Mylinow spreader, G 500 ppm fthalide; leaf blast one month after initial application.
Assay [3] has as its system lettuce root rot fungus (Fusarium oxysporum f. sp. lactucae race SB1-1). In words: Lettuce root rot control test. Format: in vivo. The settings on record: submersion treatment, 20 ppm cerebroside B solution (H).
The subject of assay [4] is tomato verticullium wilt fungus (Verticillium dahliae). In words: Tomato verticillium wilt control test. In kind it is in vivo. The settings on record: submersion 12 hr, 20 ppm in terms of cerebroside B, 21st day.
The subject of assay [5] is sweet potato dead arm fungus (Fusarium oxysporum). In words: Sweet potato stem rot control test. To be noted: sweet potato (Benikomachi) roots submerged 30 min, 20 ppm in terms of cerebroside B; disease development of roots 26 days after transplantation.
Method: The root parts of seedling sweet potatoes (variety: Benikomachi) infected with sweet potato dead arm fungus (Fusarium oxysporum) were submerged in each sample solution for 30 min before planting in a field. Individual plots were treated by the following sample liquids. Experimental plot (E) was treated with a liquid (concentration: 20 ppm in terms of cerebroside B) prepared by diluting ethanol extract concentrate A prepared in Example 1 by 150 times. Comparison plot (H) was treated with a liquid having a cerebroside B concentration of 20 ppm. The number of plants per plot was 20, and one plot consisted of four blocks which were provided at intervals of 60 cm. In this state, the plants were transplanted in the field.
The percentage disease development of roots was investigated 26 days after the transplantation, and the protective value was calculated from the average percentage disease development of roots.

Results on 1 compound are retold here after patent publication US7316989B2 (priority 2001, dated 2008).

The structures appear in SMILES notation. Where two headings read alike, the source gives them in different places.

For `CCCCCCCCCCCCCC[C@@H](O)C(=O)N[C@@H](CO[C@@H]1O[C@H](CO)[C@@H](O)[C@H](O)[C@H]1O)[C@H](O)/C=C/CC/C=C(\C)CCCCCCCCC` [cerebroside B, (4E,8E)-N-D-2′-hydroxypalmitoyl-1-O-β-D-glucopyranosyl-9-methyl-4,8-sphingadienine], the Protective value is reported as 87.6 in assay [1] (Example 4, 10 ppm in terms of cerebroside B, 2 ml per pot to foliage, plot B with 0.1% Tween 20 as spreader); 90 in assay [1] (rice (Akitakomachi), foliar application 2 ml per pot, diluted to 10 ppm in terms of cerebroside B, inoculation 3 days after treatment, lesions counted 5 days after inoculation); 87.3 in assay [2]; 93 with rice blast (leaf blast); 78 in assay [3] (28th day); 60 in assay [4]. In addition, the Protective value in assay [5] came out at 70. Further, the “Number of lesions (average number of lesions per leaf)” value in assay [1] (Example 4, 10 ppm in terms of cerebroside B, 2 ml per pot to foliage, plot B with 0.1% Tween 20 as spreader, control plot 18.6) turned out to be 2.3; in assay [2] (control plot 10.2) it was 1.3. Also, in assay [3] (control plot = 100), the “Raw weight ratio on ground part” value was found to be 231.
